The values that follow come from ChEMBL document CHEMBL1150581, “Batzelline D and isobatzelline E from the indopacific sponge Zyzzya fuliginosa” (J Nat Prod, 2002).

One assay relates to NIH3T3. Description: Inhibition of HIV1 env protein assessed as inhibition of env expressing african green monkey BSC1 cell fusion with mouse NIH3T3 cell expressing CXCR4 and Escherichia coli T7 at 1 ug/ml after 2.5 hrs by beta galactosidase report gene assay. The following applies: Human immunodeficiency virus 1.
The nature of assay [1]: Inhibition of HIV1 env protein assessed as inhibition of env expressing african green monkey BSC1 cell fusion with mouse NIH3T3 cell expressing CXCR4 and Escherichia coli T7 after 2.5 hrs by beta galactosidase report gene assay. Particulars: Human immunodeficiency virus 1, NIH3T3, 2.5 h.

pIC50: −log10 of the molar value. Active and inactive are the calls of the source. No cut-off for these calls is given here.

In general, pIC50 refers to −log10 of the IC50, conventionally taken in molar units.

As to `Cn1cc2c3c1C(=O)C(N)=CC3=[N+](C)CC2` [MAKALUVAMINE H], the outcome with NIH3T3 was Active. Further, in assay [1], the negative logarithm of the IC50 (pIC50) is 5.30.

With `Cn1cc2c3c1C(=O)C(N)=CC3=NCC2` [MAKALUVAMINE A], the outcome in the assay with NIH3T3 was Active. Moreover, the negative-log IC50 (pIC50) in assay [1] is 5.30.

On to `Cn1cc2c3c1C(=O)C(N)=C(Cl)C3=NCC2` [ISOBATZELLINE C], for which the result in the assay on NIH3T3 was Active. Further, the pIC50 in assay [1] is 6.70.
